From ChEMBL document CHEMBL5107956, “Natural products from mangrove sediments-derived microbes: Structural diversity, bioactivities, biosynthesis, and total synthesis” (Eur J Med Chem, 2022) come the findings set out here.

One assay concerns Meloidogyne javanica. In words: Nematicidal activity against Meloidogyne javanica. The following applies: read-out: LD50 (the source's name). The class given is functional.
In another assay the test system is Meloidogyne incognita. In words: Nematicidal activity against Meloidogyne incognita. The class given is functional. Conditions: read-out: LD50 (the source's name).
Another assay concerns NCI-H1975. The assay can be described thus: Cytotoxicity against human NCI-H1975 cells assessed as cell growth inhibition measured after 72 hrs by MTT assay. The class given is functional, cell-based. The following applies: NCI-H1975, 72 h. In general terms: Tetrazolium dyes change colour on reduction, which living cells bring about.
In assay [1] the test system is HL-60. In words: Cytotoxicity against human HL-60 cells assessed as cell growth inhibition measured after 72 hrs by MTT assay. The following applies: HL-60, 72 h. In kind it is functional, cell-based.
Assay [2] has as its system Pseudopestalotiopsis theae. In words: Antifungal activity against Pestalotiopsis theae assessed as fungal cell growth inhibition. The following applies: read-out: ED50 (the source's name). The class given is functional.
Assay [3] has as its system Candida albicans. In words: Antifungal activity against Candida albicans assessed as fungal growth inhibition. In kind it is functional.
A further assay has as its system Proteus vulgaris. The assay can be described thus: Antibacterial activity against Proteus vulgaris MTCC 7299 assessed as bacterial growth inhibition incubated for 48 to 72 hrs by agar plate diffusion assay. In kind it is functional. The following applies: time 48-72 hrs.
Another assay has as its target Acetylcholinesterase (Homo sapiens, UniProt P22303). The assay can be described thus: Inhibition of AChE (unknown origin) using acetylthiocholine iodide as substrate measured after 30 mins by Ellman's method. Background: DTNB colorimetry detects thiols as they appear.
A further assay relates to SF-268. The assay can be described thus: Cytotoxicity against human SF-268 cells assessed as cell growth inhibition. In kind it is functional, cell-based.
Another assay concerns MCF7. In words: Cytotoxicity against human MCF7 cells assessed as cell growth inhibition. In kind it is functional, cell-based.
The test system of the next assay is NCI-H460. In words: Cytotoxicity against human NCI-H460 cells assessed as cell growth inhibition. In kind it is functional, cell-based.
In assay [4] the test system is Colletotrichum gloeosporioides. In words: Antifungal activity against Colletotrichum gloeosporioides assessed as inhibition of fungal growth measured after 72 hrs by micro plate reader analysis. The class given is functional.
The test system of the next assay is Influenza A virus. The assay can be described thus: Antiviral activity against Influenza A virus H1N1 by CPE inhibition assay. The class given is functional, organism-based.
The next assay concerns ACHN. In words: Antiproliferative activity against human ACHN cells assessed as cell growth inhibition measured after 72 hrs by CCK-8 assay. In kind it is functional, cell-based.
The test system of assay [5] is HL-60. The assay can be described thus: Antiproliferative activity against human HL-60 cells assessed as cell growth inhibition measured after 72 hrs by CCK-8 assay. Conditions: HL-60, 72 h. The class given is functional, cell-based.
Another assay concerns K562. In words: Antiproliferative activity against human K562 cells assessed as cell growth inhibition measured after 72 hrs by CCK-8 assay. In kind it is functional, cell-based. Conditions: K562, 72 h.
The next assay concerns PC-3. The assay can be described thus: Cytotoxicity against human PC-3 cells assessed as cell growth inhibition. In kind it is functional.
The next assay relates to HCT-116. The assay can be described thus: Cytotoxicity against human HCT-116 cells assessed as cell growth inhibition. In kind it is functional.
Another assay concerns HOP-92. The assay can be described thus: Cytotoxicity against human HOP-92 cells assessed as cell growth inhibition. In kind it is functional.
For a further assay, the system named is LOX IMVI. In words: Cytotoxicity against human LOX IMVI cells assessed as cell growth inhibition. In kind it is functional.
A further assay concerns OVCAR-3. In words: Cytotoxicity against human OVCAR-3 cells assessed as cell growth inhibition. In kind it is functional.
Assay [6] is described as follows: Cytotoxicity against human ACC-MESO-1 cells assessed as cell growth inhibition measured after 48 hrs by WST-8 assay. In kind it is functional, cell-based. The following applies: ACC-MESO-1, 48 h.
For a further assay, the system named is HeLa. In words: Cytotoxicity against human HeLa cells assessed as cell growth inhibition measured after 48 hrs by WST-8 assay. The class given is functional, cell-based.
The test system of a further assay is Aspergillus niger. The assay can be described thus: Antifungal activity against Aspergillus niger MTCC 282 assessed as cell growth inhibition measured after 48 to 72 hrs. In kind it is functional. Conditions: time 48-72 hrs.
Assay [7] in a line: Antioxidant activity assessed as DPPH radical scavenging activity incubated for 30 mins by […] assay. The class given is functional. For orientation: Loss of DPPH colour is used to gauge radical scavenging.
Assay [8] concerns Candida albicans. The assay can be described thus: Antifungal activity against Candida albicans MTCC 227 assessed as cell growth inhibition measured after 48 to 72 hrs. In kind it is functional. The following applies: time 48-72 hrs.
For a further assay, the system named is Saccharomyces cerevisiae. The assay can be described thus: Antifungal activity against Saccharomyces cerevisiae MTCC 170 assessed as cell growth inhibition measured after 48 to 72 hrs. In kind it is functional. Conditions: time 48-72 hrs.
A short description of assay [9]: Cytotoxicity against human HCC366 cells assessed as cell growth inhibition measured after 96 hrs by CellTiter-Glo assay. The class given is functional, cell-based. The following applies: HCC366, 96 h.
A further assay has as its system NCI-H2122. In words: Cytotoxicity against human NCI-H2122 cells assessed as cell growth inhibition measured after 96 hrs by CellTiter-Glo assay. The following applies: NCI-H2122, 96 h. The class given is functional, cell-based.
The next assay relates to A549. In words: Antiproliferative activity against human A549 cells assessed as cell growth inhibition by MTT assay. In kind it is functional, cell-based.
A further assay concerns Bel-7402. In words: Cytotoxicity against human Bel-7402 cells assessed as cell growth inhibition by MTT assay. In kind it is functional, cell-based.
Another assay has as its system HCT-8. In words: Cytotoxicity against human HCT-8 cells assessed as cell growth inhibition by MTT assay. In kind it is functional, cell-based.
The subject of another assay is A2780. The assay can be described thus: Cytotoxicity against human A2780 cells assessed as cell growth inhibition by MTT assay. The class given is functional, cell-based.

In general, IC50 refers to the concentration needed to halve the response being measured. By MIC is commonly meant the least concentration at which growth counts as inhibited. For orientation: GI50 means the concentration giving 50% growth inhibition.

Values after ≈ are worked out from the molar mass of the structure shown. Some results are limits rather than exact numbers.

Acetylcholinesterase, sequence (P22303 whole entry): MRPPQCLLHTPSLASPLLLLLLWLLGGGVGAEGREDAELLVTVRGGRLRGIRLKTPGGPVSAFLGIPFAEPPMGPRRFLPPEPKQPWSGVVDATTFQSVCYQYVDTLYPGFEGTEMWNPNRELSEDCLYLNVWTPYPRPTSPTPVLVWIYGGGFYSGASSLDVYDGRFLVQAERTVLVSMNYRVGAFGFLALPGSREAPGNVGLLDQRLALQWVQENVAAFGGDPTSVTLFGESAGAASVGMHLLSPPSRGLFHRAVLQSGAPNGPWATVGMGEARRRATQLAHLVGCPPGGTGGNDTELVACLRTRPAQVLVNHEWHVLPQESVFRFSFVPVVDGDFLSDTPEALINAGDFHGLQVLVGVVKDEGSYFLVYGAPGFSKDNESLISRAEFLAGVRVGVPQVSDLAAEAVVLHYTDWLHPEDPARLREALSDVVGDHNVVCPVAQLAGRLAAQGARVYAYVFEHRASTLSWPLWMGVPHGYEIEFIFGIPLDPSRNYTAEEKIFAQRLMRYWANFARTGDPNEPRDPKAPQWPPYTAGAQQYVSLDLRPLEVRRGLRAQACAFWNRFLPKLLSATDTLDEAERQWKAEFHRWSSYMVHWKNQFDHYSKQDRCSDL

For `CCCCCC[C@@H](O)[C@@H]1C(=O)O[C@H](C)[C@@H](O)/C=C/C=C/C=C/C=C/C=C(\C)[C@@H](O)[C@H](O)[C@@H](O)C[C@H](O)C[C@H](O)C[C@@H](O)C[C@@H](O)C[C@@H]1O`, the LC50 in the assay with Meloidogyne javanica is 7.83 µg/mL (≈ 11.4 µM); with Meloidogyne incognita, 7.64 µg/mL (≈ 11.2 µM).
For `C/C=C/C1=CC(=O)[C@]2(C(=O)c3c(OC)cc(OC)cc3C(=O)OC)O[C@@H]2O1`, the IC50 with NCI-H1975 and in the assay on HL-60 [1] was 3.7 µM each time.
Take `CC(=C\C(=O)O)/C=C(\C)CCCCCC[C@H]1OC(=O)[C@@H]1CO`: in assay [2], the EC50 was 42.3 µg/mL (≈ 136 µM).
Consider `CCC(C)C1OC(=O)/C=C/C=C/C=C/C=C/C=C/CC(O)CC(O)CC(O)CC(O)CC(O)CC(O)CC(O)CC(O)/C=C/C1C` (stereo not given), for which, in the assay on Candida albicans [3], the MIC came to 25 µM (≈ 16.3 µg/mL).
For the compound `CCCOC(=O)c1ccccc1C(=O)OC(C)CC` (stereo not given), the MIC in the assay on Proteus vulgaris was 4 µg/mL (≈ 15.1 µM).
At Acetylcholinesterase, `C[C@H]1CN2C(=O)[C@]34Cc5c([nH]c6c7c(ccc56)OC(C)(C)CC7=O)C(C)(C)[C@@H]3C[C@@]2(C1)C(=O)N4` gave an IC50 of 58 µM.
Take `CC(C)[C@@H](C)/C=C/[C@@H](C)[C@H]1CC[C@H]2C3=CC(=O)N(CCO)C3=CC[C@]12C`: the IC50 worked out at 7.9 µg/mL (≈ 22.1 µM) with SF-268, 7.5 µg/mL (≈ 21 µM) in the assay on MCF7 and 7.8 µg/mL (≈ 21.8 µM) in the assay with NCI-H460.
As for `CC(=O)O[C@@H]1C[C@H](C)[C@@]23CC=C(C)[C@H](C2)C[C@@](C)(O)[C@@H]13`, the MIC in assay [4] was determined as 0.125 µg/mL (≈ 0.449 µM).
On to `CC[C@@H](C)C1=C2NC(=O)[C@@](O)(C/C(=C\C=O)OC)C(=O)N2[C@H](C(C)C)C(=O)N1`, for which the IC50 with Influenza A virus was 50 µM.
Turning to `C/C=C/[C@H](O[C@H]1O[C@@H](CO)[C@H](O)[C@@H](O)[C@@H]1O)[C@H](C)/C=C(C)/C=C/C/C(C)=C/Cc1nc(OC)c(OC)c(O)c1C`, the IC50 is 2.3 µM in the assay with ACHN, 1.3 µM with HL-60 [5] and 5.5 µM in the assay on K562.
Consider `C[C@@]12OC(=O)[C@]1([C@@H](O)[C@@H]1C=CCCC1)NC(=O)[C@@H]2CCCl` [MARIZOMIB], for which the GI50 in the assay on PC-3 was less than 0.011 µM; in the assay with HCT-116, 0.035 µM; in the assay on HOP-92, less than 0.011 µM; with LOX IMVI it was less than 0.011 µM; with OVCAR-3, less than 0.011 µM.
Regarding `O=C1CCC(=O)O[C@@H]2[C@@H](O)[C@H](O)[C@@H](COC(=O)CCC(=O)O[C@@H]3[C@@H](O)[C@H](O)[C@@H](CO1)O[C@@H]3O)O[C@@H]2O`, the IC50 was determined as 48 µM in [6] and 37 µM in the assay on HeLa.
In the case of `C/C=C/C1=CC(=O)[C@@]2(C(=O)c3c(OC)cc(OC)cc3C(=O)OC)O[C@H]2O1`, the IC50 in the assay with NCI-H1975 and with HL-60 [1] was 3.7 µM each time.
On to `C=CCOc1ccccc1O` [1-hydroxy-2-allyloxybenzene], for which the MIC with Aspergillus niger, in the assay with Candida albicans [8] and with Saccharomyces cerevisiae was 200 µg/mL (≈ 1330 µM) in each case. In assay [7], the 50% inhibitory concentration (IC50) was found to be 22 µg/mL (≈ 146 µM).
For the compound `COc1cc2nc(C(=O)NCC(=O)O)sc2c(C/C=C(\C)CC/C=C(\C)CC/C=C(\C)CCC/C(C)=C\CC(=O)O)c1O`, the half-inhibitory concentration (IC50) turned out to be 6.8 µM in assay [9] and 2.5 µM with NCI-H2122.
On to `C=C1CC[C@H]2C(C)(C)CCC[C@]2(C)[C@H]1C[C@@]12C[C@H]3C(=O)N(C)[C@@H](C(C)C)C(=O)N3[C@@H]1Nc1ccccc12`, for which the IC50 in the assay on A549, in the assay with Bel-7402, in the assay with HCT-8 and with A2780 was 1 µM throughout.
